The text below walks through data of patent publication US9980928B2, “Hydroxy aliphatic substituted phenyl aminoalkyl ether derivatives” (PROUS INSTITUTE FOR BIOMEDICAL RESEARCH, S.A., priority 2012, dated 2018).

Values joined by “and” are separate entries in the source; they are usually repeats but may differ in a detail not shown here. Equal entries are not always repeated. “Also recorded” adds a separate entry of the source.

One assay addresses uptake of serotonin (Homo sapiens, UniProt P31645). Briefly: Uptake inhibition of serotonin, cellular assay. Type of assay: cell-based. Conditions: read-out: Serotonin reuptake inhibition (IC50 μM). The procedure:
The effect of the compounds of the present invention as inhibitors of the uptake of norepinephrine and serotonin in cellular assays at concentrations that range from […] to 1 nM is determined following the methods described in Galli, A. et al. J Exp Biol 1995, 198(Pt. 10): 2197-212 and Gu, H. et al. J Biol Chem. 1994, 269(10):7124-30.

The next assay has as its system p-ERK. Briefly: Western blot of p-ERK in mouse brain after i.p. administration. It is filed as in vivo, mice. To be noted: 30 mg/kg i.p., hippocampus, 1 hour after administration; hydrochloride. The procedure: Acute biochemical neuronal changes in neurotrophin and synaptic plasticity signaling after the administration of the compounds to be tested may be studied by Western blot assessment of ERK, Akt, phospholipase C (PLC), Trk-B, […] and CAMK II phosphorylation assays in the hippocampus, striatum and cortex at 1 hour post-administration.
Two groups of animals were used: C57BL control mice and mice treated by i.p. administration of a dose of 30 mg/kg of the compound to be tested diluted in saline solution or control saline (n=6 per group).
Animals were sacrificed by cervical dislocation at the corresponding time and different brain regions were dissected (frontal cortex, striatum, hippocampus, cerebellum) after […] of having administered the compounds. […] The supernatants were collected and the protein concentration was measured using the Dc protein assay kit (Bio-Rad, Hercules, Calif., USA) read in a 96-well plate. […]
After primary antibody incubation, membranes were washed with TBS-T and incubated for 1 hour at room temperature with the appropriate horseradish peroxidase-conjugated secondary antibody (1:2000; Promega, Madison, Wis., USA), and the reaction was finally visualized with the Western Blotting Luminol Reagent (Santa Cruz Biotechnology, Santa Cruz, Calif., USA). Western blot replicates were scanned and quantified using a computer-assisted densitometric analysis.
A general note: A western blot detects proteins with antibodies after separation by electrophoresis.

Assay [1] concerns fmr1 KO mice and wild type mice. The experiment in a line: Social behavior test in Fragile X (fmr1 KO) mouse model. It is filed as in vivo. Conditions: 30 mg/kg i.p. acute. The procedure: FIG. 4A plots the time (s) that the test mouse devotes to exploring two cylinders: a first cylinder containing a familiar genotype-matched juvenile stimulus mouse and a second cylinder containing a novel stimulus mouse and the total time of exploration (both cylinders) during a 10 min session. FIG. 4B Plots the percentage of time spent near the two cylinders during the 10 min session. FIG. 4C plots the Discrimination index (time exploring the novel stimulus−time exploring the familiar stimulus/total time of exploration×100).
N=10-12 mice per group. Mice had received an acute i.p. injection of saline (WT 1st bar, fmr1 KO 3rd bar) or 30 mg/kg Example 2 (Wild Type 2nd bar, fmr1 KO 4th bar) 24 h before the session. Data are expressed as mean±S.E.M. Two way ANOVA Treatment effect Φ p<0.05, Genotype x Treatment interaction p<0.05, Bonferroni as post hoc ***p<0.001, **p<0.01, *p<0.05.
Example 2 effects on social disability in a model of Fmr1 KO was performed. Social behavior was examined on an open-field that consisted of an arena (70 cm long×70 cm wide×30 cm high) made of Plexiglas. An overhead camera connected to the video-tracking software SMART (Panlab, Spain) was used to monitor the animal's behavior. The experimental design included three sessions:
1) Habituation session Animals were habituated for 10 min to an arena containing two empty transparent cylinders (30 cm diameter×40 cm high) made of Plexiglas. The cylinders were perforated to have interaction points and were located on two corners of the open field. Time exploring the cylinders was registered along the 10 min duration. After the habituation session mice received an acute injection of either saline or Example 2 (30 mg/kg i.p.) and replaced on their cages. 2) Social interaction 24 h later, animals were replaced to the arena containing the two cylinders, one cylinder was empty and the other one contained a stranger individual (stimulus). The time exploring the two cylinders was registered for 10 minutes. The stimulus individual was always a juvenile mouse (less than two months of age), to avoid the group hierarchy and aggressiveness towards non familiar individuals that show adult male mice. In addition, the stimulus individual was genotype matched with the testing mouse. The position of the stimulus individual was counterbalanced between animals. After the sociability session mice received an acute injection of either saline or Example 2 (30 mg/kg i.p.). 3) Social recognition 24 h later, animals were replaced to the arena containing the two cylinders, one cylinder contained the same stimulus individual presented during the social interaction session (familiar) and the other contained a novel stimulus individual. Both stimuli were juvenile animals and genotype matched. The position of the familiar stimulus remained the same as it was in the social interaction session, and counterbalanced between animals. Once the subject mice finished the test they remained individually housed in a separate cage until the other cage partner finalized the test, to avoid exposition to olfactory cues from stimuli mice. In all cases, those mice from the same cage were never exposed to the same stimuli, either familiar or novel. The time exploring the two cylinders was registered for 10 minutes. The discrimination index was calculated as time exploring the novel stimulus mouse−time exploring the familiar stimulus mouse/total time of exploration×100. The arena and cylinders were deeply cleaned between animals to avoid olfactory cues. All measures of exploration were manually registered by the experimenter blind to genotype and treatment. Exploratory behavior was defined as the animal directing its nose towards the cylinder at a distance of <2 cm. A proximal zone of 14 cm from the cylinders was defined as interaction zone and the time spent in these zones was registered as index of exploratory behavior.

uptake of serotonin, sequence (P31645 whole entry): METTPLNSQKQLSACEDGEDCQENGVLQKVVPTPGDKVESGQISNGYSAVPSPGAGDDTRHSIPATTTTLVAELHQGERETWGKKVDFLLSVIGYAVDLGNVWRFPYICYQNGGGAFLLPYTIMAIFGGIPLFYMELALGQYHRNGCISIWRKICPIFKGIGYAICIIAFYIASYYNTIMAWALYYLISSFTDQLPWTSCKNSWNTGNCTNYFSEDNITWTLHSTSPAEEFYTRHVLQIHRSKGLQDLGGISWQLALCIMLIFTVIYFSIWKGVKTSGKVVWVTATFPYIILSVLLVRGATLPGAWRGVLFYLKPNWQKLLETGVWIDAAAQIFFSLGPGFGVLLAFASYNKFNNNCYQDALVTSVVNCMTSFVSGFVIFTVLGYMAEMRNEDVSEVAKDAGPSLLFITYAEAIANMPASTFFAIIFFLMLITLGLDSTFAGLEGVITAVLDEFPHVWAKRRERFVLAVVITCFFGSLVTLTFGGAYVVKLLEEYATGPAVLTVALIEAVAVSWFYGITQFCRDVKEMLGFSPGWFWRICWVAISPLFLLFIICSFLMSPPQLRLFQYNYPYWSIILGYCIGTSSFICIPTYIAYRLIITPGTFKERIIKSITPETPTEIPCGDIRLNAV

With `CNCCC(Oc1ccc(CCO)cc1)c1ccccc1.Cl` (single isomer, unassigned) [Example 2, 2-[4-[3-(Methylamino)-1-phenylpropoxy]phenyl]ethanol hydrochloride], the half-inhibitory concentration (IC50) on uptake of serotonin is 0.328 µM and 0.348 µM. Moreover, the “p-ERK levels (ERK1/2 phosphorylation)” value in the assay with p-ERK is reported as “positive significant increase; also recorded: trend for an increase”. In assay [1] (WT and fmr1 KO mice), the “time exploring the familiar stimulus (FIG. 4A)” value is on record as “significantly reduced”. Also, in assay [1] (fmr1 KO mice), the “social behavior alteration / social abnormalities” value was “completely restored”, the “time exploring the novel stimulus mouse” value is reported as “rose at levels comparable to those detected in wild type animals”, the “time spent near the familiar individual (FIG. 4B)” value is “reducing” and the “time spent near the novel stimulus (FIG. 4B)” value is on record as “significantly increased”. Besides, the social recognition result in assay [1] (wild type mice) is “did not modify”.

The IC50 is the midpoint of a concentration-inhibition curve.
